Patent US7759344B2, “Bis-aryl amide derivatives and methods of use” (priority 2007, dated 2010)

Biological target: T1, c-Met (Homo sapiens, UniProt P08581)
T1 construct: A PCR product covering residues 1058-1365 of c-Met (c-Met kinase domain) is generated; made in house; host or cells: Baculovirus cells (baculovirus/insect-cell expression)
Test: c-Met Receptor Assay (HTRF kinase assay with GST-cMet (P) enzyme, gastrin and ATP)
Assay type: biochemical
Description: Cloning, Expression and Purification of c-Met Kinase Domain
Alternative purification of human GST-cMET from Baculovirus cells
The resin is washed with 10 column volumes (100 mL) of Lysis Buffer. […] The elution is collected as 15 mL fractions. Aliquots of the elution fractions are run on SDS PAGE (12% Tris Glycine gel, Invitrogen, #EC6005BOX). The gel is stained with 0.25% Coomassie Blue stain. Fractions with GST-cMET are concentrated with a Vivaspin 20 mL Concentrator (#VS2002; […]) to a final volume less than 2.0 ml. […] The GST-cMET is eluted with an isocratic run of the above buffer, with the eluent collected in 1.0 mL fractions. Fractions with significant OD280 readings are run on another 12% Tris Glycine gel. The peak tubes with GST-cMET are pooled and the OD280 is read with the column buffer listed above as the blank buffer. • Phosphorylation of the purified GST-cMET is performed by incubating the protein for 3 h at RT with the following:
After incubation, the solution is concentrated in a Vivaspin 20 ml Concentrator to a volume less than 2.00 ml. The solution is applied to the same Superdex 75 16/60 column used above after re-equilibration. The GST-cMET is eluted as described above. The elution fractions corresponding to the first eluted peak on the chromatogram are run on a 12% Tris Glycine gel, as above, to identify the fractions with GST-cMET. Fractions are pooled and the OD280 is read with the column buffer used as the blank.
A Kinase reaction Buffer is prepared as follows:
When the assay is carried out, freshly add:
The HTRF Buffer Contains: • 50 mM Tris-HCl (pH 7.5), 100 mM NaCl, 0.1% BSA, 0.05% Tween 20,5mM EDTA
Dilute GST-cMet (P) Enzyme in Kinase Buffer as Follows:
2. Assay Plate Preparation:
Then incubate the plate at RT for 30 min.
3. Prepare Gastrin and ATP working solution in kinase reaction buffer as follows:
Use Biomek FX to add 20 μl ATP and Gastrin working solution to the assay plate to start reaction, incubate the plate at RT for 1 h. 4. Transfer 5 μL reaction product at the end of 1 h into 80 μL HTRF buffer in black plate

T1 sequence (P08581 1058-1365): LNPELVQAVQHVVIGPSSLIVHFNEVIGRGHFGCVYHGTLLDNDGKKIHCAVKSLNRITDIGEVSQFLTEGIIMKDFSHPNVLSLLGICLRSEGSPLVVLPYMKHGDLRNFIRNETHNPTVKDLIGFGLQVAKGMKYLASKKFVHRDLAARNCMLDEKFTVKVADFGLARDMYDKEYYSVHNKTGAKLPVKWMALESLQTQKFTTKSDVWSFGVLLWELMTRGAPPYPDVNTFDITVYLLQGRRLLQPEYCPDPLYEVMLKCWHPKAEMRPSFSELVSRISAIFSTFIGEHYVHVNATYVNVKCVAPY

| SMILES | Ki [nM] |
| --- | --- |
| Cc1c(C(=O)Nc2ccc(-c3cccc4[nH]nc(N)c34)c(F)c2)c(=O)n(-c2ccccc2)n1C [Example 1, N-(4-(3-amino-1H-indazol-4-yl)-3-fluorophenyl)-1,5-dimethyl-3-oxo-2-phenyl-2,3-dihydro-1H-pyrazole-4-carboxamide] | 21 |
| Cc1c(C(=O)Nc2ccc(-c3cccc4c(N)nccc34)c(F)c2)c(=O)n(-c2ccccc2)n1C [Example 2, N-(4-(1-amino-5-isoquinolinyl)-3-fluorophenyl)-1,5-dimethyl-3-oxo-2-phenyl-2,3-dihydro-1H-pyrazole-4-carboxamide] | 28 |
| Cc1c(C(=O)Nc2ccc(-c3cccc4c(N)nccc34)c(F)c2)c(=O)n(-c2ccccc2)n1CC(C)(C)O [Example 3, N-(4-(1-amino-5-isoquinolinyl)-3-fluorophenyl)-1-(2-hydroxy-2-methylpropyl)-5-methyl-3-oxo-2-phenyl-2,3-dihydro-1H-pyrazole-4-carboxamide] | 56 |
| Cc1c(C(=O)Nc2ccc(-c3cccc4cnccc34)c(F)c2)c(=O)n(-c2ccccc2)n1C [Example 4, N-(3-fluoro-4-(5-isoquinolinyl)phenyl)-1,5-dimethyl-3-oxo-2-phenyl-2,3-dihydro-1H-pyrazole-4-carboxamide] | 73 |
| Cc1c(C(=O)Nc2ccc(-c3cccc4[nH]nc(N)c34)c(F)c2)c(=O)n(-c2ccccc2)n1CC(C)(C)O [Example 5, N-(4-(3-amino-1H-indazol-4-yl)-3-fluorophenyl)-1-(2-hydroxy-2-methylpropyl)-5-methyl-3-oxo-2-phenyl-2,3-dihydro-1H-pyrazole-4-carboxamide] | 85 |
| Cc1c(C(=O)Nc2ccc(-c3cccc4cnccc34)c(F)c2)c(=O)n(-c2ccccc2)n1CC(C)(C)O [Example 6, N-(3-fluoro-4-(5-isoquinolinyl)phenyl)-1-(2-hydroxy-2-methylpropyl)-5-methyl-3-oxo-2-phenyl-2,3-dihydro-1H-pyrazole-4-carboxamide] | 142 |
| Cc1c(C(=O)Nc2ccc(-c3cccc4cnccc34)cc2F)c(=O)n(-c2ccccc2)n1CC(C)(C)O [Example 7, N-(2-fluoro-4-(5-isoquinolinyl)phenyl)-1-(2-hydroxy-2-methylpropyl)-5-methyl-3-oxo-2-phenyl-2,3-dihydro-1H-pyrazole-4-carboxamide] | 156 |
| Cc1c(C(=O)Nc2ccc(-c3cccc4[nH]nc(N)c34)cc2)c(=O)n(-c2ccccc2)n1CC(C)(C)O [Example 8, N-(4-(3-amino-1H-indazol-4-yl)phenyl)-1-(2-hydroxy-2-methylpropyl)-5-methyl-3-oxo-2-phenyl-2,3-dihydro-1H-pyrazole-4-carboxamide] | 252 |
| Cc1c(C(=O)Nc2ccc(-c3nncc4cnccc34)c(F)c2)c(=O)n(-c2ccccc2)n1C [Example 9, N-(3-fluoro-4-pyrido[3,4-d]pyridazin-1-ylphenyl)-1,5-dimethyl-3-oxo-2-phenyl-2,3-dihydro-1H-pyrazole-4-carboxamide] | 2380 |
| Cc1cc(NC(=O)c2c(C)n(CC(C)(C)O)n(-c3ccccc3)c2=O)ccc1-c1cccc2cnccc12 [Example 10, 1-(2-Hydroxy-2-methylpropyl)-N-(4-(5-isoquinolinyl)-3-methylphenyl)-5-methyl-3-oxo-2-phenyl-2,3-dihydro-1H-pyrazole-4-carboxamide] | 373 |
| Cc1c(C(=O)Nc2ccc(-c3cccc4cnccc34)c(F)c2)c(=O)n(-c2ccccc2)n1C[C@H](C)O [Example 11, N-(3-fluoro-4-(isoquinolin-5-yl)phenyl)-1-((S)-2-hydroxypropyl)-5-methyl-3-oxo-2-phenyl-2,3-dihydro-1H-pyrazole-4-carboxamide] | 47 |
| Cc1c(C(=O)Nc2ccc(-c3cccc4cnccc34)c(F)c2)c(=O)n(-c2ccccc2)n1C[C@@H](C)O [Example 12, N-(3-fluoro-4-(isoquinolin-5-yl)phenyl)-1-((R)-2-hydroxypropyl)-5-methyl-3-oxo-2-phenyl-2,3-dihydro-1H-pyrazole-4-carboxamide] | 62 |
| Cc1c(C(=O)Nc2ccc(-c3cccc4c(NCCCN5CCOCC5)nccc34)cc2)c(=O)n(-c2ccccc2)n1CC(C)(C)O [Example 13, 1-(2-hydroxy-2-methylpropyl)-5-methyl-N-(4-(1-(3-morpholinopropylamino)-isoquinolin-5-yl)phenyl)-3-oxo-2-phenyl-2,3-dihydro-1H-pyrazole-4-carboxamide] | 3290 |
| Cc1c(C(=O)Nc2ccc(-c3cccc4c(NCCN(C)C)nccc34)cc2)c(=O)n(-c2ccccc2)n1CC(C)(C)O [Example 14, N-(4-(1-(2-(dimethylamino)ethylamino)isoquinolin-5-yl)phenyl)-1-(2-hydroxy-2-methylpropyl)-5-methyl-3-oxo-2-phenyl-2,3-dihydro-1H-pyrazole-4-carboxamide] | > 20000 |
| Cc1c(C(=O)Nc2ccc(-c3cccc4c(N(C)CCN(C)C)nccc34)cc2)c(=O)n(-c2ccccc2)n1CC(C)(C)O [Example 15, N-(4-(1-((2-(dimethylamino)ethyl)(methyl)amino)isoquinolin-5-yl)phenyl)-1-(2-hydroxy-2-methylpropyl)-5-methyl-3-oxo-2-phenyl-2,3-dihydro-1H-pyrazole-4-carboxamide] | > 6670 |
| Cc1c(C(=O)Nc2ccc(-c3cccc4c(N(C)CCCN(C)C)nccc34)cc2)c(=O)n(-c2ccccc2)n1CC(C)(C)O [Example 16, N-(4-(1-((3-(dimethylamino)propyl)(methyl)amino)isoquinolin-5-yl)phenyl)-1-(2-hydroxy-2-methylpropyl)-5-methyl-3-oxo-2-phenyl-2,3-dihydro-1H-pyrazole-4-carboxamide] | 1450 |
